Assay results reported in US12145927B2 (BRISTOL-MYERS SQUIBB COMPANY, priority 2018, dated 2024).
pIC50: −log10 of the molar value.

Target: T1, human IDO1 (Homo sapiens, UniProt P14902)
T1 construct: expressed in transfected cells
Test: IDO inhibition assay in human IDO1/HEK293 cells (IDO1 HEK Human)
Format: cell-based
Conditions: HEK293 cells stably expressing human IDO1; 20 hours incubation; absorbance at 490 nm after Ehrlich reagent
Summary of the method: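 Kynurenine output of stably IDO1-transfected HEK293 cells was measured by absorbance at 490 nm after mixing supernatant with 0.2% Ehrlich reagent, following TCA stop (0.2% final, 50° C., 30 min). Cells were incubated 20 hours with compound. Inhibition was scaled between DMSO and 500 nM reference standard.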

T1 sequence (P14902 whole entry): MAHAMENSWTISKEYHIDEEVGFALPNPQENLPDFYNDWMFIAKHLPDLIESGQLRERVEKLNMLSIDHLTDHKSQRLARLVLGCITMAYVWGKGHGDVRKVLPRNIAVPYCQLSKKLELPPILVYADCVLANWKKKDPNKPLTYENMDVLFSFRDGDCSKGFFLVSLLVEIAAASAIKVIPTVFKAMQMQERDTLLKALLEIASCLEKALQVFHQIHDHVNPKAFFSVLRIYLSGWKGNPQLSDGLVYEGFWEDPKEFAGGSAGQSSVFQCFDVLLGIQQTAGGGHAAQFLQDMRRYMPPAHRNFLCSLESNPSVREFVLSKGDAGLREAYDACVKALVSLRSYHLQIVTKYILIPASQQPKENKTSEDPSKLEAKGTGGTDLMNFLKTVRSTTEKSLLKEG

First: C=C[C@H]1Oc2c(NC(=O)Nc3ccc(C)cc3)cc(-c3ccccc3-c3nnn[nH]3)cc2[C@@H]1CCC(F)(F)F (single isomer, unassigned) [Example 100, 1-((trans)-5-(2-(1H-tetrazol-5-yl)phenyl)-3-(3,3,3-trifluoropropyl)-2-vinyl-2,3-dihydrobenzofuran-7-yl)-3-(p-tolyl)urea]
Second: C=C[C@@H]1Oc2c(NC(=O)Nc3ccc(C)cc3)cc(-c3ccccc3-c3nnn[nH]3)cc2[C@H]1CCC(F)(F)F (single isomer, unassigned) [Example 101, 1-((trans)-5-(2-(1H-tetrazol-5-yl)phenyl)-3-(3,3,3-trifluoropropyl)-2-vinyl-2,3-dihydrobenzofuran-7-yl)-3-(p-tolyl)urea]
The pIC50 of the first is 0.47 log units lower: 7.68 for the first, 8.15 for the second.

Going from C=C[C@H]1Oc2c(NC(=O)Nc3ccc(C)cc3)cc(-c3ccccc3-c3nnn[nH]3)cc2[C@@H]1CCC(F)(F)F (single isomer, unassigned) [Example 129, 1-((trans)-5-(2-(1H-tetrazol-5-yl)phenyl)-3-(3,3,3-trifluoropropyl)-2-vinyl-2,3-dihydrobenzofuran-7-yl)-3-(p-tolyl)urea] to Cc1ccc(NC(=O)Nc2cc(-c3ccccc3-c3nnn[nH]3)cc3c2OCCCC3C)cc1 (stereo not shown) [Example 31, 1-(7-(2-(1H-tetrazol-5-yl)phenyl)-5-methyl-2,3,4,5-tetrahydrobenzo[b]oxepin-9-yl)-3-(p-tolyl)urea], the pIC50 falls from 7.80 to 7.15 (0.65 log units). The first is the more potent here.

Compared with C=C[C@H]1Oc2c(NC(=O)Nc3ccc(C)cc3)cc(-c3ccccc3-c3nnn[nH]3)cc2[C@@H]1CCC(F)(F)F (single isomer, unassigned) [Example 130, 1-((trans)-5-(2-(1H-tetrazol-5-yl)phenyl)-3-(3,3,3-trifluoropropyl)-2-vinyl-2,3-dihydrobenzofuran-7-yl)-3-(p-tolyl)urea], Cc1ccc(NC(=O)Nc2cc(-c3ccccc3-c3nnn[nH]3)cc3c2OC(C)(C)C3)cc1 [Example 120, 1-(5-(2-(1H-Tetrazol-5-yl)phenyl)-2,2-dimethyl-2,3-dihydrobenzofuran-7-yl)-3-(p-tolyl)urea] is 1.06 log units lower in pIC50: 7.40 for the first, 6.34 for the second.

First: O=C(Nc1ccc(C2CC2)cc1F)Nc1cc(-c2ccccc2-c2nnn[nH]2)cc2c1OCCCC2c1ccccc1 (stereo not shown) [Example 6, 1-(7-(2-(1H-tetrazol-5-yl)phenyl)-5-phenyl-2,3,4,5-tetrahydrobenzo[b]oxepin-9-yl)-3-(4-cyclopropyl-2-fluorophenyl)urea]
Second: O=C(Nc1ccc(F)cc1F)Nc1cc(-c2ccccc2-c2nnn[nH]2)cc2c1OCCCC2c1ccccc1 (stereo not shown) [Example 21, 1-(7-(2-(1H-tetrazol-5-yl)phenyl)-5-phenyl-2,3,4,5-tetrahydrobenzo[b]oxepin-9-yl)-3-(2,4-difluorophenyl)urea]
The pIC50 of the first is 0.40 log units higher: 7.15 for the first, 6.75 for the second. The first is the more potent here.

Going from Cc1ccc(NC(=O)Nc2cc(-c3ccccc3C(N)=O)cc3c2OCCCC3c2ccccc2)cc1 (stereo not shown) [Example 7, 2-(5-phenyl-9-(3-(p-tolyl)ureido)-2,3,4,5-tetrahydrobenzo[b]oxepin-7-yl)benzamide] to COC(=O)c1c(C)cccc1-c1cc(NC(=O)Nc2ccc(C)cc2)c2c(c1)C(c1ccccc1)CCCO2 (stereo not shown) [Example 66, methyl 2-methyl-6-(5-phenyl-9-(3-(p-tolyl)ureido)-2,3,4,5-tetrahydrobenzo[b]oxepin-7-yl)benzoate], the pIC50 falls from 7.39 to 6.49 (0.90 log units).

Going from Cc1csc(NC(=O)Nc2cc(-c3ccccc3-c3nnn[nH]3)cc3c2OCCCC3c2ccccc2)n1 (stereo not shown) [Example 12, 1-(7-(2-(1H-tetrazol-5-yl)phenyl)-5-phenyl-2,3,4,5-tetrahydrobenzo[b]oxepin-9-yl)-3-(4-methylthiazol-2-yl)urea] to Cc1cc(NC(=O)Nc2cc(-c3ccccc3-c3nnn[nH]3)cc3c2OCCCC3c2ccccc2)no1 (stereo not shown) [Example 15, 1-(7-(2-(1H-tetrazol-5-yl)phenyl)-5-phenyl-2,3,4,5-tetrahydrobenzo[b]oxepin-9-yl)-3-(5-methylisoxazol-3-yl)urea], the pIC50 rises from 5.97 to 6.63 (0.66 log units). The second is the more potent here.

Going from Cc1ccc(NC(=O)Nc2cc(-c3ccccc3-c3nnn[nH]3)cc3c2OCCCC3c2ccccc2)nc1 (stereo not shown) [Example 17, 1-(7-(2-(1H-tetrazol-5-yl)phenyl)-5-phenyl-2,3,4,5-tetrahydrobenzo[b]oxepin-9-yl)-3-(5-methylpyridin-2-yl)urea] to O=C(Nc1nc2ccccc2s1)Nc1cc(-c2ccccc2-c2nnn[nH]2)cc2c1OCCCC2c1ccccc1 (stereo not shown) [Example 18, 1-(7-(2-(1H-tetrazol-5-yl)phenyl)-5-phenyl-2,3,4,5-tetrahydrobenzo[b]oxepin-9-yl)-3-(benzo[d]thiazol-2-yl)urea], the pIC50 falls from 7.28 to 6.02 (1.26 log units). The first is the more potent here.

Compared with Fc1ccc2oc(Nc3cc(-c4ccccc4-c4nnn[nH]4)cc4c3OCCCC4C3CC3)nc2c1 (stereo not shown) [Example 27, N-(7-(2-(1H-tetrazol-5-yl)phenyl)-5-cyclopropyl-2,3,4,5-tetrahydrobenzo[b]oxepin-9-yl)-5-fluorobenzo[d]oxazol-2-amine], Fc1cccc2oc(Nc3cc(-c4ccccc4-c4nnn[nH]4)cc4c3OCCCC4C3CC3)nc12 (stereo not shown) [Example 28, N-(7-(2-(1H-tetrazol-5-yl)phenyl)-5-cyclopropyl-2,3,4,5-tetrahydrobenzo[b]oxepin-9-yl)-4-fluorobenzo[d]oxazol-2-amine] is 1.01 log units higher in pIC50: 7.58 for the first, 8.59 for the second. The second is the more potent here.

First: Cc1ccc(CC(=O)Nc2cc(-c3ccccc3-c3nnn[nH]3)cc3c2OCCCC3C)cc1 (stereo not shown) [Example 32, N-(7-(2-(1H-tetrazol-5-yl)phenyl)-5-methyl-2,3,4,5-tetrahydrobenzo[b]oxepin-9-yl)-2-(p-tolyl)acetamide]
Second: O=C(Nc1ccccc1F)Nc1cc(-c2ccccc2-c2nnn[nH]2)cc2c1OCCCC2c1ccc(F)cc1 (stereo not shown) [Example 70, 1-(7-(2-(1H-tetrazol-5-yl)phenyl)-5-(4-fluorophenyl)-2,3,4,5-tetrahydrobenzo[b]oxepin-9-yl)-3-(2-fluorophenyl)urea]
The pIC50 of the first is 1.17 log units lower: 6.38 for the first, 7.55 for the second. The second is the more potent here.

First: O=C(Nc1ccccc1F)Nc1cc(-c2ccccc2-c2noc(=O)[nH]2)cc2c1OCCCC2C1CC1 (stereo not shown) [Example 35, 1-(5-cyclopropyl-7-(2-(5-oxo-4,5-dihydro-1,2,4-oxadiazol-3-yl)phenyl)-2,3,4,5-tetrahydrobenzo[b]oxepin-9-yl)-3-(2-fluorophenyl)urea]
Second: COC(=O)c1c(OC)cccc1-c1cc(NC(=O)Nc2ccc(C)cc2)c2c(c1)C(c1ccccc1)CCCO2 (stereo not shown) [Example 65, methyl 2-methoxy-6-(5-phenyl-9-(3-(p-tolyl)ureido)-2,3,4,5-tetrahydrobenzo[b]oxepin-7-yl)benzoate]
The pIC50 of the first is 1.29 log units higher: 7.71 for the first, 6.42 for the second.

Work on FC(F)(F)c1cnc(Nc2cc(-c3ccccc3-c3nnn[nH]3)cc3c2OCCCC3c2ccccc2)nc1 (stereo not shown) [Example 54, N-(7-(2-(1H-tetrazol-5-yl)phenyl)-5-phenyl-2,3,4,5-tetrahydrobenzo[b]oxepin-9-yl)-5-(trifluoromethyl)pyrimidin-2-amine] yielded a pIC50 of 6.36.

Target: T2, indoleamine 2,3-dioxygenase (IDO) (Homo sapiens, UniProt P14902)
T2 construct: replaced with media containing IFNγ (#285-IF/CF, R&D Systems) at a final concentration of 25 ng/mL; endogenous in cells; host or cells: HeLa (ATCC CCL-2), IFNγ-stimulated
T2 sequence (P14902 whole entry): as above
Test: HeLa cell-based indoleamine 2,3-dioxygenase (IDO) assay (IDO1 HeLa)
Conditions: HeLa cells, IFNγ 25 ng/mL, 48 hour incubation; kynurenine by absorbance at 480 nm
Procedure: Assessment of inhibitor activity in HeLa cell-based indoleamine 2,3-dioxygenase (IDO) assay:
HeLa (ATCC® CCL-2) cells were obtained from the ATCC® and cultured in Dulbecco's Modified Eagle Medium supplemented with 4.5 g/L glucose, […] (#10-013-CV, Corning), 2 mM L-alanyl-L-glutamine dipeptide (#35050-061, Gibco), 100U/mL penicillin, 100 μg/mL streptomycin (#SV30010, HyClone) and 10% fetal bovine serum (#SH30071.03 HyClone). Cells were maintained in a humidified incubator at 37° C. in 5% CO2.
IDO activity was assessed as a function of kynurenine production as follows: HeLa cells were seeded in a 96-well culture plate at a density of 5,000 cells/well and allowed to equilibrate overnight. After 24 hours, the media was aspirated and replaced with media containing IFNγ (#285-IF/CF, R&D Systems) at a final concentration of 25 ng/mL. A serial dilution of each test compound was added to the cells in a total volume of 200 μL of culture medium. After a further 48 hour incubation, 170 μL of supernatant was transferred from each well to a fresh 96-well plate. 12.1 μL of 6.1N trichloroacetic acid (#T0699, Sigma-Aldrich) was added to each well and mixed, followed by incubation at 65° C. for 20 minutes to hydrolyze N-formylkynurenine, the product of indoleamine 2,3-dioxygenase, to kynurenine. The reaction mixture was then centrifuged for 10 mins at 500×g to sediment the precipitate. 100 μL of the supernatant was transferred from each well to a fresh 96-well plate. 100 μl of 2% (w/v) p-dimethylaminobenzaldehyde (#15647-7, Sigma-Aldrich) in acetic acid (#A6283, Sigma-Aldrich) was added to each well mixed and incubated at RT for 20 mins. Kynurenine concentrations were determined by measuring absorbance at 480 nm and calibrating against an L-kynurenine (#K8625, Sigma-Aldrich) standard curve using a SPECTRAMAX® M2e microplate reader (Molecular Devices). The percentage activity at each inhibitor concentration was determined and IC50 values assessed using nonlinear regression.

First: Cc1ccc(NC(=O)Nc2cc(-c3ccccc3-c3nn[nH]n3)cc3c2OCC=CC3c2ccccc2)cc1 (racemic) [Example 87, (+/−)-1-(7-(2-(1H-tetrazol-5-yl)phenyl)-5-phenyl-2,5-dihydrobenzo[b]oxepin-9-yl)-3-(p-tolyl)urea]
Second: O=C(Nc1ccc(Br)cc1)Nc1cc(-c2ccccc2-c2nnn[nH]2)cc2c1OCC=CC2c1ccccc1 (racemic) [Example 106, (+/−)-1-(7-(2-(1H-tetrazol-5-yl)phenyl)-5-phenyl-2,5-dihydrobenzo[b]oxepin-9-yl)-3-(4-bromophenyl)urea]
The pIC50 of the first is 0.44 log units higher: 7.96 for the first, 7.52 for the second. The first is the more potent here.

Compared with CC1=CC(c2ccccc2)c2cc(-c3ccccc3-c3nnn[nH]3)cc(NC(=O)Nc3ccc(C)cc3)c2OC1 (racemic) [Example 92, (+/−)-1-(7-(2-(1H-tetrazol-5-yl)phenyl)-3-methyl-5-phenyl-2,5-dihydrobenzo[b]oxepin-9-yl)-3-(p-tolyl)urea], O=C(Nc1ccc(Cl)cc1F)Nc1cc(-c2ccccc2-c2nnn[nH]2)cc2c1OCC=CC2c1ccccc1 (racemic) [Example 105, (+/−)-1-(7-(2-(1H-tetrazol-5-yl)phenyl)-5-phenyl-2,5-dihydrobenzo[b]oxepin-9-yl)-3-(4-chloro-2-fluorophenyl)urea] is 0.88 log units lower in pIC50: 8.14 for the first, 7.26 for the second.
